Assay results reported in the NIST ThermoML archive (doi:10.1021/je7005743).

Experiments:
[1] = 298.15 K; 101.33 kPa; Liquid; Pycnometric method
[2] = excess molar enthalpy (molar enthalpy of mixing); xn = mol fraction of the nth substance listed; conditions: 303.15 K, 101 kPa, Liquid, Flow calorimetry

CC(C)CC(C)(C)C [2,2,4-trimethylpentane]
Conditions | mass density [kg/m3]
[1] | 687.91

CC(C)CC(C)(C)C [2,2,4-trimethylpentane] + CCO
[2]
Conditions | excess molar enthalpy [kcal/mol]
x2 = 0.1291 | 0.13
x2 = 0.2383 | 0.152
x2 = 0.332 | 0.158
x2 = 0.4132 | 0.157
x2 = 0.4842 | 0.153
x2 = 0.5469 | 0.146
x2 = 0.6026 | 0.138
x2 = 0.6525 | 0.129
x2 = 0.6974 | 0.12
x2 = 0.738 | 0.11
x2 = 0.7749 | 0.1
x2 = 0.8086 | 0.0898
x2 = 0.8395 | 0.0797
x2 = 0.8679 | 0.069
x2 = 0.8942 | 0.0582
x2 = 0.9185 | 0.0473
x2 = 0.941 | 0.0357
x2 = 0.962 | 0.024
x2 = 0.9817 | 0.012

CCCCO [butan-1-ol]
Conditions | mass density [kg/m3]
[1] | 805.76

CCC(C)O (centres undefined) [butan-2-ol]
Conditions | mass density [kg/m3]
[1] | 802.57

CCO [ethanol]
Conditions | mass density [kg/m3]
[1] | 785.32

CCCO [propan-1-ol]
Conditions | mass density [kg/m3]
[1] | 799.94

CC(C)O [propan-2-ol]
Conditions | mass density [kg/m3]
[1] | 781.32

C=COCCC [propyl vinyl ether]
Conditions | mass density [kg/m3]
[1] | 762.96

C=COCCC [propyl vinyl ether] + CC(C)CC(C)(C)C
[2]
Conditions | excess molar enthalpy [kcal/mol]
x1 = 0.0715 | 0.0253
x1 = 0.1398 | 0.0464
x1 = 0.2052 | 0.0635
x1 = 0.2678 | 0.0775
x1 = 0.3278 | 0.0878
x1 = 0.3853 | 0.0954
x1 = 0.4406 | 0.1
x1 = 0.4937 | 0.103
x1 = 0.5448 | 0.103
x1 = 0.5939 | 0.101
x1 = 0.6413 | 0.097
x1 = 0.6869 | 0.0917
x1 = 0.7309 | 0.0846
x1 = 0.7734 | 0.0758
x1 = 0.8144 | 0.0658
x1 = 0.854 | 0.0547
x1 = 0.8923 | 0.0418
x1 = 0.9294 | 0.0277
x1 = 0.9653 | 0.0138

C=COCCC [propyl vinyl ether] + CCO
[2]
Conditions | excess molar enthalpy [kcal/mol]
x1 = 0.0265 | 0.014
x1 = 0.0543 | 0.0284
x1 = 0.0836 | 0.0441
x1 = 0.1145 | 0.0602
x1 = 0.147 | 0.0766
x1 = 0.1814 | 0.0936
x1 = 0.2178 | 0.111
x1 = 0.2564 | 0.129
x1 = 0.2973 | 0.146
x1 = 0.3409 | 0.164
x1 = 0.3873 | 0.179
x1 = 0.4368 | 0.195
x1 = 0.4899 | 0.209
x1 = 0.5468 | 0.221
x1 = 0.608 | 0.229
x1 = 0.6741 | 0.233
x1 = 0.7456 | 0.227
x1 = 0.8231 | 0.207
x1 = 0.9076 | 0.157
